What was measured:
drusen = test: Number of drusen in an ARMD patient following NAC treatment; assay type: in vivo; settings: FIG. 2
[1] = test system: reduced blood glutathione (GSH); test: Blood glutathione (GSH) levels in an ARMD patient before and after NAC treatment; assay type: in vivo; settings: ARMD patient taking NAC compared to the same patient before taking NAC, FIG. 1
Description: FIG. 1 is a chart showing the decreased reduced blood glutathione (GSH) levels in an Age-Related Macular Degeneration patient, prior to and following treatment of the patient with N-acetylcysteine (NAC).
It is known that GSH levels decrease in cells that are exposed to oxidative stress and inflammation. Decreases in GSH lead to even further increased oxidative stresses. […] Since it shown that patients with ARMD, as opposed to the control subjects, have decreased levels of GSH and that the levels of GSH increased following NAC treatment, alterations in GSH, GSSG and other factors when analyzed alone or in combination, can be used to help identify ARMD and other patients who have increased ocular oxidative stress and/or inflammation. For example, these responses may occur in the eye of ARMD or other patients as the disease progresses from its dry to wet forms or from less serious to more serious wet forms. Consequently, measurements of these factors could provide a way of diagnosing and following the progression of ARMD or other conditions in patients, especially when the measurements are made sequentially and compared repeatedly in the same individual.
A second aspect of the invention is that the effectiveness of treatments that alter oxidative stress can be assessed by the measurement, especially sequential measurement, of blood factors. […]

## CC(=O)N[C@@H](CS)C(=O)O [NAC, N-acetylcysteine]
drusen
  drusen (number of drusens, a retinal abnormality): decreased
[1]
  GSH levels: increased
